Experimental data: patent US6528532B1, “Urea derivatives as HIV aspartyl protease inhibitors” (Pharmacor Inc., priority 2002, dated 2003)

The compounds below were run against HIV protease (Human immunodeficiency virus type 1 group M subtype B, UniProt P04585) (assay: Enzymatic (FRET fluorometric) assay for determining the inhibition constant (Ki) of compounds targeting the HIV protease). Conditions: FRET substrate (EDANS/DABCYL), equation of Henderson; read-out: Ki.
Type: biochemical
From the text: Enzymatic Assay for Determining the Inhibition Constant (Ki) of Synthetic Compounds Targeting the HIV Protease
This is a fluorometric assay based on the cleavage by protease of a substrate carrying a donor group (EDANS) and an acceptor group (DABCYL) on each side of the cleavage site, interacting together through fluorescence resonance energy transfer (FRET) as described by Matayoshi et al. (Science 247:[…], 1990).
After calculation of Vo and Vi, the inhibition constant (Ki) of the compound is determined using the equation of Henderson: [formula]
where Vo=the enzyme's initial velocity
Vi=the enzyme velocity in the presence of the inhibitory compound,
[I]=inhibitor concentration, [S]=substrate concentration,
Km=Michaelis-Menten constant and Kiapp=apparent Ki
Graphs are traced and the Ki determined using GraphPad Prism software v. 3.0.

Going from `CC(C)CN([C@H](CO)CCCCNC(=O)N(Cc1ccsc1)Cc1ccc2c(c1)OCO2)S(=O)(=O)c1ccc(N)cc1` [Example 81, (2S) 2-N-(4-Aminobenzenesulfonyl)-2-N-isobutyl-6-N-[N′-(3-thiophenemethyl)-N′-piperonylaminocarbonyl]-2,6-diaminohexanol] to `COc1ccc(CN(Cc2ccc3c(c2)OCO3)C(=O)NCCCC[C@@H](CO)N(CC(C)C)S(=O)(=O)c2ccc(N)cc2)cc1` [Example 83, (2S) 2-N-(4-Aminobenzenesulfonyl)-2-N-isobutyl-6-N-[N′-(4-methoxybenzyl)-N′-piperonylaminocarbonyl]-2,6-diaminohexanol], the Ki falls from 6.3 nM to 2.2 nM (2.9-fold).

Compared with `CC(C)CN([C@@H](CCCCNC(=O)N(Cc1ccccc1)Cc1cccnc1)C(=O)O)S(=O)(=O)c1ccc(N)cc1` [Example 47, Nα-(4-Aminobenzenesulfonyl)-Nα-isobutyl-Nε-[N′-benzyl-N′-(3-picolyl)aminocarbonyl]-L-lysine], `CC(C)CN([C@H](CO)CCCCNC(=O)N(Cc1ccccc1)Cc1cccnc1)S(=O)(=O)c1ccc(N)cc1` [Example 50, (2S) 2-N-(4-Aminobenzenesulfonyl)-2-N-isobutyl-6-N-[N′-benzyl-N′-(3-picolyl)aminocarbonyl]-2,6-diaminohexanol] is 14-fold higher in Ki: 2.4 nM for the first, 34 nM for the second.

`CC(C)CN([C@H](CO)CCCCNC(=O)N(Cc1ccc(F)cc1)C1CCCCC1)S(=O)(=O)c1ccc(N)cc1` [Example 66, (2S) 2-N-(4-Aminobenzenesulfonyl)-2-N-isobutyl-6-N-[N′-cyclohexyl-N′-(4-fluorobenzyl)aminocarbonyl]-2,6-diaminohexanol] and `CC(C)CN([C@H](CO)CCCCNC(=O)N(Cc1cccc(F)c1)C1CCCCC1)S(=O)(=O)c1ccc(N)cc1` [Example 71, (2S) 2-N-(4-Aminobenzenesulfonyl)-2-N-isobutyl-6-N-[N′-cyclohexyl-N′-(3-fluorobenzyl)aminocarbonyl]-2,6-diaminohexanol] are within 1.5-fold of each other in Ki: 175 nM for the first, 235 nM for the second.

`Cc1ccc(S(=O)(=O)N(CC(C)C)[C@@H](CCCCNC(=O)N(Cc2ccccc2)Cc2cccc([N+](=O)[O-])c2)C(=O)O)cc1` [Example 55, Nα-Isobutyl-Nα-(4-methylbenzenesulfonyl)-Nε-[N′-benzyl-N′-(3-nitrobenzyl)aminocarbonyl]-L-lysine] and `Cc1ccc(S(=O)(=O)N(CC(C)C)[C@@H](CCCCNC(=O)N(Cc2ccccc2)Cc2ccccc2[N+](=O)[O-])C(=O)O)cc1` [Example 54, Nα-Isobutyl-Nα-(4-methylbenzenesulfonyl)-Nε-[N′-benzyl-N′-(2-nitrobenzyl)aminocarbonyl]-L-lysine] are within 1.5-fold of each other in Ki: 1.1 nM for the first, 0.9 nM for the second.

Compared with `COc1ccc(CN(Cc2ccncc2)C(=O)NCCCC[C@@H](CO)N(CC(C)C)S(=O)(=O)c2ccc(C)cc2)cc1` [Example 45, (2S) 2-N-Isobutyl-2-N-(4-methylbenzenesulfonyl)-6-N-[N′-(4-methoxybenzyl)-N′-(4-picolyl)aminocarbonyl]-2,6-diaminohexanol], `COc1ccc(CN(Cc2ccncc2)C(=O)NCCCC[C@@H](C(=O)O)N(CC(C)C)S(=O)(=O)c2ccc(C)cc2)cc1` [Example 43, Nα-Isobutyl-Nα-(4-methylbenzenesulfonyl)-Nε-[N′-(4-methoxybenzyl)-N′-(4-picolyl)aminocarbonyl]-L-lysine] is 6.8-fold lower in Ki: 54 nM for the first, 7.9 nM for the second. The second binds more tightly here.

`CC(C)CCN([C@H](CO)CCCCNC(=O)N(Cc1ccc(C(F)(F)F)cc1)Cc1ccc2c(c1)OCO2)S(=O)(=O)c1ccc(N)cc1` [Example 94, (2S) 2-N-(4-Aminobenzenesulfonyl)-2-N-(3-methylbutyl)-6-N-[N′-(4-trifluoromethylbenzyl)-N′-piperonylaminocarbonyl]-2,6-diaminohexanol] and `CC(C)CCN([C@H](CO)CCCCNC(=O)N(Cc1ccc([N+](=O)[O-])cc1)Cc1ccc2c(c1)OCO2)S(=O)(=O)c1ccc(N)cc1` [Example 89, (2S) 2-N-(4-Aminobenzenesulfonyl)-2-N-(3-methylbutyl)-6-N-[N′-(4-nitrobenzyl)-N′-piperonylaminocarbonyl]-2,6-diaminohexanol] are within 1.5-fold of each other in Ki: 3 nM for the first, 2.2 nM for the second.

First: Cc1ccc(S(=O)(=O)N(CC(C)C)[C@@H](CCCCNC(=S)NCCc2c[nH]c3ccccc23)C(=O)O)cc1 [Example 15]
Second: Cc1ccc(S(=O)(=O)N(CC(C)C)[C@@H](CCCCNC(=O)NCCc2c[nH]c3ccccc23)C(=O)O)cc1 [Example 6, Nα-Isobutyl-Nα-(4-methylbenzenesulfonyl)-Nε-[2′-(3-indolyl)ethylaminocarbonyl]-L-lysine]
The Ki of the first is 2.8-fold higher: 111 nM for the first, 40 nM for the second. The second binds more tightly here.

First: Cc1ccc(S(=O)(=O)N(CC(C)C)[C@@H](CCCCNC(=O)N(Cc2ccccc2)Cc2ccccc2)C(=O)O)cc1 [Example 32, Nα-Isobutyl-Nα-(4-methylbenzenesulfonyl)-Nε-(N′,N′-dibenzylaminocarbonyl)-L-lysine]
Second: Cc1ccc(S(=O)(=O)N(CC(C)C)[C@@H](CCCCNC(=S)N(Cc2ccccc2)Cc2ccccc2)C(=O)O)cc1 [Example 37, Nα-Isobutyl-Nα-(4-methylbenzenesulfonyl)-Nε-(N′,N′-dibenzylaminothiocarbonyl)-L-lysine]
The Ki of the first is 1.7-fold lower: 7.2 nM for the first, 12 nM for the second. The first binds more tightly here.

First: CC(C)CN([C@H](CO)CCCCNC(=O)N(CCc1cccs1)Cc1ccc(F)cc1)S(=O)(=O)c1ccc(N)cc1 [Example 69, (2S) 2-N-(4-Aminobenzenesulfonyl)-2-N-isobutyl-6-N-[N′-(4-fluorobenzyl)-N′-(2-thiophenethyl)aminocarbonyl]-2,6-diaminohexanol]
Second: CC(C)CN([C@H](CO)CCCCNC(=O)N(Cc1ccccc1)Cc1ccc(F)cc1)S(=O)(=O)c1ccc(N)cc1 [Example 68, (2S) 2-N-(4-Aminobenzenesulfonyl)-2-N-isobutyl-6-N-[N′-benzyl-N′-(4-fluorobenzyl)aminocarbonyl]-2,6-diaminohexanol]
The Ki of the first is 10-fold higher: 34 nM for the first, 3.3 nM for the second.

Compared with `Cc1ccc(S(=O)(=O)N(CC(C)C)[C@H](CO)CCCCNC(=S)N(Cc2ccccc2)Cc2ccccc2)cc1` [Example 34, (2S) 2-N-Isobutyl-2-N-(4-methylbenzenesulfonyl)-6-N-(N′,N′-dibenzylaminothiocarbonyl)-2,6-diaminohexanol], `CC(C)CN([C@H](CO)CCCCNC(=O)N(Cc1ccccc1)Cc1ccccc1)S(=O)(=O)c1ccc(N)cc1` [Example 41, (2S) 2-N-(4-Aminobenzenesulfonyl)-2-N-isobutyl-6-N-(N′,N′-dibenzylaminocarbonyl)-2,6-diaminohexanol] is 6.5-fold lower in Ki: 78 nM for the first, 12 nM for the second.

First: COc1ccc(CN(Cc2ccncc2)C(=O)NCCCC[C@@H](C(=O)O)N(CC(C)C)S(=O)(=O)c2ccc(N)cc2)cc1 [Example 49, Nα-(4-Aminobenzenesulfonyl)-Nα-isobutyl-Nε-[N′-(4-methoxybenzyl)-N′-(4-picolyl)aminocarbonyl]-L-lysine]
Second: Cc1ccc(S(=O)(=O)N(CC(C)C)[C@@H](CCCCNC(=O)N(Cc2ccccc2)Cc2ccncc2)C(=O)O)cc1 [Example 38, Nα-Isobutyl-Nα-(4-methylbenzenesulfonyl)-Nε-[N′-benzyl-N′-(4-picolyl)aminocarbonyl]-L-lysine]
The Ki of the first is 3.2-fold higher: 12 nM for the first, 3.7 nM for the second.

Going from `Cc1ccc(S(=O)(=O)N(CC(C)C)[C@@H](CCCCNC(=O)N[C@@H]2CCc3ccccc32)C(=O)O)cc1` [Example 24, (1S,1′R) Nα-Isobutyl-Nα-(4-methylbenzenesulfonyl)-Nε-(indanyl-1′-aminocarbonyl)-S-lysine] to `Cc1ccc(S(=O)(=O)N(CC(C)C)[C@@H](CCCCNC(=O)NCc2ccccc2)C(=O)O)cc1` [Example 2, Nα-Isobutyl-Nα-(4-methylbenzenesulfonyl)-Nε-(benzylaminocarbonyl)-L-lysine], the Ki falls from 196 nM to 32 nM (6.1-fold). The second binds more tightly here.

Going from `Cc1ccc(S(=O)(=O)N(CC(C)C)[C@H](CO)CCCCNC(=O)N(Cc2ccccc2)Cc2ccccc2N)cc1` [Example 62, (2S) 2-N-Isobutyl-2-N-(4-methylbenzenesulfonyl)-6-N-[N′-(2-aminobenzyl)-N′-benzylaminocarbonyl]-2,6-diaminohexanol] to `CC(C)CN([C@H](CO)CCCCNC(=O)N(Cc1ccccc1)Cc1ccncc1)S(=O)(=O)c1ccc(N)cc1` [Example 52, (2S) 2-N-(4-Aminobenzenesulfonyl)-2-N-isobutyl-6-N-[N′-benzyl-N′-(4-picolyl)aminocarbonyl]-2,6-diaminohexanol], the Ki rises from 39 nM to 90 nM (2.3-fold). The first binds more tightly here.

Going from `Cc1ccc(S(=O)(=O)N(CC(C)C)[C@@H](CCCCNC(=O)N(C)Cc2ccccc2)C(=O)O)cc1` [Example 40, Nα-Isobutyl-Nα-(4-methylbenzenesulfonyl)-Nε-[(N′-benzyl-N′-methyl)aminocarbonyl]-L-lysine] to `Cc1ccc(S(=O)(=O)N(CC(C)C)[C@@H](CCCCNC(=O)NCCc2ccccc2)C(=O)O)cc1` [Example 21, Nα-Isobutyl-Nα-(4-methylbenzenesulfonyl)-Nε-(phenethylaminocarbonyl)-L-lysine], the Ki rises from 55 nM to 167 nM (3-fold).

Compared with `Cc1ccc(S(=O)(=O)N(CC(C)C)C(CCCCNC(=NC#N)NCCc2c[nH]c3ccccc23)C(=O)O)cc1` [Example 29, Nα-Isobutyl-Nα-(4-methylbenzenesulfonyl)-Nε-[2′-(3-indolyl)ethylaminocarbonyl-N-cyanoamidine]-L-lysine], `CCC(C)CN(C(CO)CCCCNC(=O)N(Cc1ccccc1)Cc1cccc2c1OCO2)S(=O)(=O)c1ccc(N)cc1` [Example 97, (2S) 2-N-(4-Aminobenzenesulfonyl)-2-N-(2-methylbutyl)-6-N-[N′-benzyl-N′-(2,3-methylenedioxy)benzylaminocarbonyl]-2,6-diaminohexanol] is 2.6-fold higher in Ki: 8.2 nM for the first, 21 nM for the second.

Compound `CC(C)CN([C@H](CO)CCCCNC(=O)N(Cc1ccc(C(F)(F)F)cc1)Cc1cccc2c1OCO2)S(=O)(=O)c1ccc(N)cc1` [Example 90, (2S) 2-N-(4-Aminobenzenesulfonyl)-2-N-isobutyl-6-N-[N′-(4-trifluoromethylbenzyl)-N′-(2,3-methylenedioxy)benzylaminocarbonyl]-2,6-diaminohexanol] has a Ki of 8.9 nM.
